Laboratory results published in ChEMBL document CHEMBL4765292, “Flexible diaminodihydrotriazine inhibitors of Plasmodium falciparum dihydrofolate reductase: Binding strengths, modes of binding and their antimalarial activities” (Eur J Med Chem, 2020).

Assays:
[1] = Inhibition of Plasmodium falciparum DHFR expressed in Escherichia coli BL21 using DHF as substrate by spectrophotometric analysis
[2] = Inhibition of Plasmodium falciparum DHFR A16V/S108T mutant expressed in Escherichia coli BL21 using DHF as substrate by spectrophotometric analysis
[3] = Inhibition of Plasmodium falciparum DHFR […] mutant expressed in Escherichia coli BL21 using DHF as substrate by spectrophotometric analysis
[4] = Inhibition of Plasmodium falciparum DHFR N51I/C59R/S108N mutant expressed in Escherichia coli BL21 using DHF as substrate by spectrophotometric analysis
[5] = Inhibition of Plasmodium falciparum DHFR C59R/S108N/I164L mutant expressed in Escherichia coli BL21 using DHF as substrate by spectrophotometric analysis
[6] = Inhibition of Plasmodium falciparum DHFR N51I/C59R/S108N/I164L mutant expressed in Escherichia coli BL21 using DHF as substrate by spectrophotometric analysis
Plasmodium falciparum [7] = test: Antimalarial activity against Plasmodium falciparum TM4/8.2 infected in human erythrocytes assessed as reduction in [3H]-hypoxanthine incorporation pretreated for 20 hrs followed by [3H]-hypoxanthine addition measured after 20 hrs by radioactivity method; type: functional, organism-based
Plasmodium falciparum [8] = test: Antimalarial activity against Plasmodium falciparum T9/94 RC17 harboring DHFR A16V/S108T mutant infected in human erythrocytes assessed as reduction in [3H]-hypoxanthine incorporation pretreated for 20 hrs followed by [3H]-hypoxanthine addition measured after 20 hrs by radioactivity method; type: functional, organism-based; details: T9/94 RC17, Erythrocyte
Plasmodium falciparum [9] = test: Antimalarial activity against Plasmodium falciparum K1CB1 harboring DHFR […] mutant infected in human erythrocytes assessed as reduction in [3H]-hypoxanthine incorporation pretreated for 20 hrs followed by [3H]-hypoxanthine addition measured after 20 hrs by radioactivity method; type: functional, organism-based; details: K1CB1, Erythrocyte
Plasmodium falciparum [10] = test: Antimalarial activity against Plasmodium falciparum W2 harboring DHFR N51I/C59R/S108N mutant infected in human erythrocytes assessed as reduction in [3H]-hypoxanthine incorporation pretreated for 20 hrs followed by [3H]-hypoxanthine addition measured after 20 hrs by radioactivity method; type: functional, organism-based; details: W2, Erythrocyte
Plasmodium falciparum [11] = test: Antimalarial activity against Plasmodium falciparum CsI-2 harboring DHFR C59R/S108N/I164L mutant infected in human erythrocytes assessed as reduction in [3H]-hypoxanthine incorporation pretreated for 20 hrs followed by [3H]-hypoxanthine addition measured after 20 hrs by radioactivity method; type: functional, organism-based; details: CsI-2, Erythrocyte
Plasmodium falciparum [12] = test: Antimalarial activity against Plasmodium falciparum V1/S harboring DHFR N51I/C59R/S108N/I164L mutant infected in human erythrocytes assessed as reduction in [3H]-hypoxanthine incorporation pretreated for 20 hrs followed by [3H]-hypoxanthine addition measured after 20 hrs by radioactivity method; type: functional, organism-based; details: Erythrocyte
[13] = test system: DHFR (human against Plasmodium falciparum DHFR); test: Selectivity index, ratio of Ki for human DHFR expressed in Escherichia coli BL21 to Ki for Plasmodium falciparum DHFR expressed in Escherichia coli BL21; type: toxicity; details: read-out: Ratio Ki
[14] = test system: DHFR (human against Plasmodium falciparum DHFR double mutant); test: Selectivity index, ratio of Ki for human DHFR expressed in Escherichia coli BL21 to Ki for Plasmodium falciparum DHFR double mutant expressed in Escherichia coli BL21; type: toxicity; details: read-out: Ratio Ki
[15] = test system: DHFR (human against Plasmodium falciparum DHFR N51I/C59R/S108N/I164L mutant); test: Selectivity index, ratio of Ki for human DHFR expressed in Escherichia coli BL21 to Ki for Plasmodium falciparum DHFR N51I/C59R/S108N/I164L mutant expressed in Escherichia coli BL21; type: toxicity; details: read-out: Ratio Ki
Vero = test: Cytotoxicity against African green monkey Vero cells assessed as reduction in cell viability incubated for 72 hrs by SRB assay; type: cell-based; details: Chlorocebus sabaeus
[16] = Therapeutic index, ratio of IC50 for African green monkey Vero cells to IC50 for Plasmodium falciparum TM4/8.2; type: toxicity; details: against Plasmodium falciparum TM4/8.2, read-out: Ratio IC50
[17] = Therapeutic index, ratio of IC50 for African green monkey Vero cells to IC50 for Plasmodium falciparum K1CB1 harboring DHFR […] mutant; type: toxicity; details: read-out: Ratio IC50
[18] = Therapeutic index, ratio of IC50 for African green monkey Vero cells to IC50 for Plasmodium falciparum V1/S harboring DHFR N51I/C59R/S108N/I164L mutant; type: toxicity; details: read-out: Ratio IC50
[19] = Inhibition of Plasmodium falciparum DHFR using DHF as substrate by spectrophotometric analysis

CC1(C)N=C(N)N=C(N)N1OCCCOc1cccc(Cl)c1Cl
Ki [1]: 0.6 nM | Ki [2]: 1.3 nM | Ki [3]: 1 nM | Ki [4]: 0.7 nM | Ki [5]: 1.4 nM | Ki [6]: 1.1 nM | IC50 (Plasmodium falciparum [7]): 0.35 nM | IC50 (Plasmodium falciparum [8]): 0.21 nM | IC50 (Plasmodium falciparum [9]): 1.9 nM | IC50 (Plasmodium falciparum [10]): 0.82 nM | IC50 (Plasmodium falciparum [11]): 3.9 nM | IC50 (Plasmodium falciparum [12]): 5.2 nM | selectivity ratio [13]: 39 | selectivity ratio [14]: 24 | selectivity ratio [15]: 21 | IC50 (Vero): 9710 nM | selectivity ratio [16]: 27700 | selectivity ratio [17]: 5110 | selectivity ratio [18]: 1870

CC1(C)N=C(N)N=C(N)N1OCCCOc1cc(Cl)c(Cl)cc1Cl
Ki [3]: 0.6 nM | Ki [4]: 1.1 nM | Ki [5]: 0.4 nM | Ki [6]: 1.9 nM | IC50 (Plasmodium falciparum [7]): 0.57 nM | IC50 (Plasmodium falciparum [8]): 0.34 nM | IC50 (Plasmodium falciparum [9]): 2.3 nM | IC50 (Plasmodium falciparum [10]): 4.2 nM | IC50 (Plasmodium falciparum [11]): 3.8 nM | IC50 (Plasmodium falciparum [12]): 18 nM | selectivity ratio [13]: 29 | selectivity ratio [14]: 24 | selectivity ratio [15]: 8 | IC50 (Vero): > 1000 nM | selectivity ratio [16]: > 1750 | selectivity ratio [17]: > 435 | selectivity ratio [18]: > 56 | Ki [19]: 0.5 nM

CC1(C)N=C(N)N=C(N)N1OCCCCc1ccccc1
Ki [1]: 0.3 nM | Ki [2]: 2 nM | Ki [3]: 0.7 nM | Ki [4]: 0.7 nM | Ki [5]: 2.2 nM | Ki [6]: 3.7 nM | IC50 (Plasmodium falciparum [7]): 33 nM | IC50 (Plasmodium falciparum [8]): 3.7 nM | IC50 (Plasmodium falciparum [9]): 31 nM | IC50 (Plasmodium falciparum [10]): 44 nM | IC50 (Plasmodium falciparum [11]): 46 nM | IC50 (Plasmodium falciparum [12]): 590 nM | selectivity ratio [13]: 139 | selectivity ratio [14]: 60 | selectivity ratio [15]: 11 | IC50 (Vero): 27100 nM | selectivity ratio [16]: 821 | selectivity ratio [17]: 874 | selectivity ratio [18]: 46

CC1N=C(N)N=C(N)N1OCCCOc1cc(Cl)c(Cl)cc1Cl (stereo unspecified)
Ki [3]: 0.5 nM | Ki [4]: 0.4 nM | Ki [5]: 0.5 nM | Ki [6]: 0.6 nM | IC50 (Plasmodium falciparum [7]): 2.3 nM | IC50 (Plasmodium falciparum [8]): 0.32 nM | IC50 (Plasmodium falciparum [9]): 19 nM | IC50 (Plasmodium falciparum [10]): 35 nM | IC50 (Plasmodium falciparum [11]): 48 nM | IC50 (Plasmodium falciparum [12]): 300 nM | selectivity ratio [13]: 79 | selectivity ratio [14]: 47 | selectivity ratio [15]: 40 | IC50 (Vero): 46000 nM | selectivity ratio [16]: 20000 | selectivity ratio [17]: 2420 | selectivity ratio [18]: 153 | Ki [19]: 0.3 nM

CC1(C)N=C(N)N=C(N)N1OCCCOc1ccccc1
Ki [1]: 0.7 nM | Ki [2]: 1.5 nM | Ki [3]: 1 nM | Ki [4]: 0.8 nM | Ki [5]: 1.4 nM | Ki [6]: 1.9 nM | IC50 (Plasmodium falciparum [7]): 0.37 nM | IC50 (Plasmodium falciparum [8]): 0.59 nM | IC50 (Plasmodium falciparum [9]): 5.4 nM | IC50 (Plasmodium falciparum [10]): 5.9 nM | IC50 (Plasmodium falciparum [11]): 32 nM | IC50 (Plasmodium falciparum [12]): 53 nM | selectivity ratio [13]: 52 | selectivity ratio [14]: 36 | selectivity ratio [15]: 19 | IC50 (Vero): 33300 nM | selectivity ratio [16]: 90000 | selectivity ratio [17]: 6170 | selectivity ratio [18]: 628

CC1(C)N=C(N)N=C(N)N1OCCCNc1ccc(Cl)c(Cl)c1
Ki [1]: 1.2 nM | Ki [2]: 3.7 nM | Ki [3]: 0.8 nM | Ki [4]: 0.9 nM | Ki [5]: 1.4 nM | Ki [6]: 5.1 nM | IC50 (Plasmodium falciparum [7]): 4.5 nM | IC50 (Plasmodium falciparum [8]): 17 nM | IC50 (Plasmodium falciparum [9]): 45 nM | IC50 (Plasmodium falciparum [10]): 58 nM | IC50 (Plasmodium falciparum [11]): 390 nM | IC50 (Plasmodium falciparum [12]): 740 nM | selectivity ratio [13]: 40 | selectivity ratio [14]: 61 | selectivity ratio [15]: 9 | IC50 (Vero): > 50000 nM | selectivity ratio [16]: > 11100 | selectivity ratio [17]: > 11100 | selectivity ratio [18]: > 68

CC1(C)N=C(N)N=C(N)N1OCCCSc1ccc(Cl)cc1
Ki [1]: 0.6 nM | Ki [2]: 3.1 nM | Ki [3]: 0.9 nM | Ki [4]: 0.7 nM | Ki [5]: 0.9 nM | Ki [6]: 0.8 nM | IC50 (Plasmodium falciparum [7]): 0.6 nM | IC50 (Plasmodium falciparum [8]): 1.8 nM | IC50 (Plasmodium falciparum [9]): 6.1 nM | IC50 (Plasmodium falciparum [10]): 5.4 nM | IC50 (Plasmodium falciparum [11]): 37 nM | IC50 (Plasmodium falciparum [12]): 260 nM | selectivity ratio [13]: 40 | selectivity ratio [14]: 26 | selectivity ratio [15]: 30 | IC50 (Vero): 18100 nM | selectivity ratio [16]: 30200 | selectivity ratio [17]: 2970 | selectivity ratio [18]: 70

CC1(C)N=C(N)N=C(N)N1OCCCSc1ccccc1Cl
Ki [1]: 0.6 nM | Ki [2]: 1.9 nM | Ki [3]: 1.1 nM | Ki [4]: 0.7 nM | Ki [5]: 0.9 nM | Ki [6]: 1 nM | IC50 (Plasmodium falciparum [7]): 0.48 nM | IC50 (Plasmodium falciparum [8]): 0.73 nM | IC50 (Plasmodium falciparum [9]): 3.6 nM | IC50 (Plasmodium falciparum [10]): 3.3 nM | IC50 (Plasmodium falciparum [11]): 4.4 nM | IC50 (Plasmodium falciparum [12]): 44 nM | selectivity ratio [13]: 35 | selectivity ratio [14]: 19 | selectivity ratio [15]: 21 | IC50 (Vero): 14600 nM | selectivity ratio [16]: 30400 | selectivity ratio [17]: 4060 | selectivity ratio [18]: 332

NC1=NC(c2ccccc2)N(OCCCOc2cc(Cl)c(Cl)cc2Cl)C(N)=N1 (stereo unspecified)
Ki [3]: 1.9 nM | Ki [4]: 1.6 nM | Ki [5]: 0.3 nM | Ki [6]: 0.7 nM | IC50 (Plasmodium falciparum [7]): 5.1 nM | IC50 (Plasmodium falciparum [8]): 3.2 nM | IC50 (Plasmodium falciparum [9]): 44 nM | IC50 (Plasmodium falciparum [10]): 60 nM | IC50 (Plasmodium falciparum [11]): 340 nM | IC50 (Plasmodium falciparum [12]): 480 nM | selectivity ratio [13]: 242 | selectivity ratio [14]: 76 | selectivity ratio [15]: 207 | IC50 (Vero): 25100 nM | selectivity ratio [16]: 4920 | selectivity ratio [17]: 570 | selectivity ratio [18]: 52 | Ki [19]: 0.6 nM

CC1(C)NC(N)=NC(=N)N1OCCCSc1ccccc1
Ki [1]: 0.5 nM | Ki [2]: 1 nM | Ki [3]: 0.8 nM | Ki [4]: 0.3 nM | Ki [5]: 0.4 nM | IC50 (Plasmodium falciparum [7]): 0.52 nM | IC50 (Plasmodium falciparum [8]): 0.58 nM | IC50 (Plasmodium falciparum [9]): 4.8 nM | IC50 (Plasmodium falciparum [10]): 9.9 nM | IC50 (Plasmodium falciparum [11]): 39 nM | IC50 (Plasmodium falciparum [12]): 64 nM | selectivity ratio [13]: 58 | selectivity ratio [14]: 36 | selectivity ratio [15]: 58 | IC50 (Vero): 63800 nM | selectivity ratio [16]: 123000 | selectivity ratio [17]: 13300 | selectivity ratio [18]: 997
